Laboratory results as given in the supplement of paper PMC11368000.

How the values were obtained:
Conditions in all cases: exposure time: 90 min
1083 [1] = donor line of iPSC-derived cardiomyocytes; assay: POD (EC10) for decrease in total cell number (cytotoxicity) vs vehicle; higher = less potent (higher point of departure)
In short: (§1)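 Cardiomyocytes derived from human iPSCs of 16 donors were grown for 14 days in 384-well plates and then treated for 90 min at 37 °C with final concentrations of 0.1, 1, 10 and 100 µM in 0.5% DMSO. Once the Ca2+ flux read was done, the cells were stained for 15 min with Hoechst 33342 (2.2 µg/mL) and MitoTracker Orange, imaged at 10× on an ImageXpress Micro Confocal, and their nuclei counted per field in MetaXpress. Hierarchical Bayesian Hill fits to vehicle-normalised counts gave donor-specific cytotoxicity points of departure. These were set at a 10% decrease in counts.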

1434 [2] = donor line of iPSC-derived cardiomyocytes; assay: as above
In short: as §1

30171 [3] = donor line of iPSC-derived cardiomyocytes; assay: as above
In short: as §1

1518 [4] = donor line of iPSC-derived cardiomyocytes; assay: as above
In short: as §1

20084 = donor line of iPSC-derived cardiomyocytes; assay: as above
In short: as §1

1368 [5] = donor line of iPSC-derived cardiomyocytes; assay: as above
In short: as §1

1392 = donor line of iPSC-derived cardiomyocytes; assay: as above
In short: as §1

11235 [6] = donor line of iPSC-derived cardiomyocytes; assay: as above
In short: as §1

1565 = donor line of iPSC-derived cardiomyocytes; assay: as above
In short: as §1

1118 [7] = donor line of iPSC-derived cardiomyocytes; assay: as above
In short: as §1

1535 = donor line of iPSC-derived cardiomyocytes; assay: as above
In short: as §1

1516 = donor line of iPSC-derived cardiomyocytes; assay: as above
In short: as §1

1083 [8] = assay: POD (EC05) for decrease in beat frequency (negative chronotrope) vs vehicle; higher = less potent (higher point of departure)
Procedure: (§2)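 Human iPSC-derived cardiomyocytes from 16 donors were exposed for 90 min at 37 °C to each PFAS at 0.1, 1, 10 and 100 µM in 0.5% DMSO, 384-well plates. Kinetic Ca2+ flux (FLIPR) and Hoechst nuclei counts were normalised to vehicle wells and fitted with a hierarchical Bayesian Hill model to give donor-specific PODs: EC05 for beat-rate increase or decrease and for decay-to-rise ratio increase (QT proxy), EC95 for peak-frequency loss (asystole), EC10 for total cell number loss. 0.03 µM is the lower bound.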

1434 [9] = assay: as above
Procedure: as §2

30171 [10] = assay: as above
Procedure: as §2

1518 [11] = assay: as above
Procedure: as §2

1368 [12] = assay: as above
Procedure: as §2

1531 = donor line of iPSC-derived cardiomyocytes; assay: as above
Procedure: as §2

11235 [13] = assay: as above
Procedure: as §2

1118 [14] = assay: as above
Procedure: as §2

Row | SMILES | POD vs vehicle 1083 [1] [µM] | POD vs vehicle 1434 [2] [µM] | POD vs vehicle 30171 [3] [µM] | POD vs vehicle 1518 [4] [µM] | POD vs vehicle 20084 [µM] | POD vs vehicle 1368 [5] [µM] | POD vs vehicle 1392 [µM] | POD vs vehicle 11235 [6] [µM] | POD vs vehicle 1565 [µM] | POD vs vehicle 1118 [7] [µM] | POD vs vehicle 1535 [µM] | POD vs vehicle 1516 [µM] | POD vs vehicle 1083 [8] [µM] | POD vs vehicle 1434 [9] [µM] | POD vs vehicle 30171 [10] [µM] | POD vs vehicle 1518 [11] [µM] | POD vs vehicle 1368 [12] [µM] | POD vs vehicle 1531 [µM] | POD vs vehicle 11235 [13] [µM] | POD vs vehicle 1118 [14] [µM]
1 | O=C(O)C(F)(F)C(F)(F)OC(F)(F)F [Perfluoro-3-methoxypropanoic_acid] | > 100 | > 100 | > 100 | > 100 | > 100 | > 100 | > 100 | > 100 | > 100 | > 100 | > 100 | > 100 | > 100 | > 100 | > 100 | > 100 | > 100 | > 100 | > 100 | > 100
2 | O=C(O)C(F)(F)C(F)(F)C(F)(F)OC(F)(C(F)(F)F)C(F)(F)F [Perfluoro-4-isopropoxybutanoic_acid] | > 100 | > 100 | > 100 | > 100 | > 100 | > 100 | > 100 | > 100 | > 100 | > 100 | > 100 | > 100 | > 100 | > 100 | > 100 | > 100 | > 100 | > 100 | > 100 | > 100
3 | O=S(=O)(O)C(F)(F)C(F)(F)C(F)(F)C(F)(F)F [Perfluorobutanesulfonic_acid] | > 100 | > 100 | > 100 | > 100 | > 100 | > 100 | > 100 | > 100 | > 100 | > 100 | > 100 | > 100 | > 100 | > 100 | 73.6 | > 100 | > 100 | > 100 | 41.4 | > 100
4 | O=C(O)C(F)(F)C(F)(F)C(F)(F)F [Perfluorobutanoic_acid] | > 100 | > 100 | > 100 | > 100 | > 100 | > 100 | > 100 | > 100 | > 100 | > 100 | > 100 | > 100 | > 100 | > 100 | > 100 | > 100 | > 100 | > 100 | > 100 | > 100
5 | O=C(O)C(F)(F)C(F)(F)C(F)(F)C(F)(F)C(F)(F)C(F)(F)C(F)(F)C(F)(F)C(F)(F)F [Perfluorodecanoic_acid] | > 100 | 75.8 | > 100 | 67.6 | > 100 | > 100 | > 100 | > 100 | 81.5 | > 100 | > 100 | > 100 | 18.3 | 12.4 | 7.83 | > 100 | > 100 | 64.4 | 15.5 | 2.31
6 | NS(=O)(=O)C(F)(F)C(F)(F)C(F)(F)C(F)(F)C(F)(F)C(F)(F)F [Perfluorohexanesulfonamide] | > 100 | 20.6 | > 100 | > 100 | > 100 | > 100 | > 100 | > 100 | > 100 | 14.9 | > 100 | 61.1 | 25.7 | 9.37 | 7.7 | 32.8 | > 100 | 6.44 | 0.693 | 1.33
7 | O=S(=O)(O)C(F)(F)C(F)(F)C(F)(F)C(F)(F)C(F)(F)C(F)(F)F [Perfluorohexanesulfonic_acid] | > 100 | > 100 | > 100 | > 100 | > 100 | > 100 | > 100 | > 100 | > 100 | > 100 | > 100 | > 100 | > 100 | 63.6 | 46.1 | > 100 | > 100 | 24.5 | 26.5 | 19.6
8 | O=C(O)C(F)(F)C(F)(F)C(F)(F)C(F)(F)C(F)(F)F [Perfluorohexanoic_acid] | > 100 | > 100 | > 100 | > 100 | > 100 | > 100 | > 100 | > 100 | > 100 | > 100 | > 100 | > 100 | > 100 | > 100 | > 100 | > 100 | > 100 | > 100 | > 100 | > 100
9 | O=C(O)C(F)(F)C(F)(F)C(F)(F)C(F)(F)C(F)(F)C(F)(F)C(F)(F)C(F)(F)F [Perfluorononanoic_acid] | > 100 | > 100 | > 100 | > 100 | > 100 | > 100 | > 100 | > 100 | > 100 | > 100 | > 100 | > 100 | > 100 | 20 | 7.86 | 51.1 | > 100 | 40.2 | 2.8 | 11
10 | NC(=O)C(F)(F)C(F)(F)C(F)(F)C(F)(F)C(F)(F)C(F)(F)C(F)(F)F [Perfluorooctanamide] | > 100 | > 100 | > 100 | > 100 | > 100 | > 100 | > 100 | > 100 | > 100 | > 100 | > 100 | > 100 | > 100 | > 100 | > 100 | > 100 | > 100 | > 100 | > 100 | > 100
11 | N=C(N)C(F)(F)C(F)(F)C(F)(F)C(F)(F)C(F)(F)C(F)(F)C(F)(F)F [Perfluorooctanamidine] | > 100 | > 100 | > 100 | > 100 | > 100 | > 100 | > 100 | > 100 | > 100 | > 100 | > 100 | > 100 | > 100 | > 100 | > 100 | > 100 | > 100 | > 100 | 0.499 | 0.128
12 | O=S(=O)(O)C(F)(F)C(F)(F)C(F)(F)C(F)(F)C(F)(F)C(F)(F)C(F)(F)C(F)(F)F [Perfluorooctanesulfonic_acid] | > 100 | > 100 | > 100 | > 100 | > 100 | > 100 | > 100 | > 100 | > 100 | > 100 | > 100 | > 100 | > 100 | 13.3 | 6.94 | > 100 | > 100 | 59.1 | 0.581 | 10.6
13 | O=C(O)C(F)(F)C(F)(F)C(F)(F)C(F)(F)C(F)(F)C(F)(F)C(F)(F)F [Perfluorooctanoic_acid] | > 100 | > 100 | > 100 | > 100 | > 100 | > 100 | > 100 | > 100 | > 100 | > 100 | > 100 | > 100 | > 100 | 26.1 | 7.04 | 92.7 | > 100 | 49 | 5.14 | 7.02
14 | O=C(O)C(F)(F)C(F)(F)C(F)(F)C(F)(F)F [Perfluoropentanoic_acid] | > 100 | > 100 | > 100 | > 100 | > 100 | > 100 | > 100 | > 100 | > 100 | > 100 | > 100 | > 100 | > 100 | > 100 | > 100 | > 100 | > 100 | > 100 | > 100 | > 100
15 | O=C(O)C(F)(F)C(F)(F)F [Perfluoropropanoic_acid] | > 100 | > 100 | > 100 | > 100 | > 100 | > 100 | > 100 | > 100 | > 100 | > 100 | > 100 | > 100 | > 100 | > 100 | > 100 | > 100 | > 100 | > 100 | > 100 | > 100
16 | O=C(O)C(F)(F)C(F)(F)C(F)(F)C(F)(F)C(F)(F)C(F)(F)C(F)(F)C(F)(F)C(F)(F)C(F)(F)F [Perfluoroundecanoic_acid] | > 100 | > 100 | > 100 | > 100 | > 100 | > 100 | > 100 | > 100 | > 100 | > 100 | > 100 | > 100 | > 100 | > 100 | 0.96 | 1.19 | > 100 | > 100 | 0.395 | > 100
17 | O=S(=O)([O-])C(F)(F)C(F)(F)C(F)(F)C(F)(F)F.[K+] [Potassium_perfluorobutanesulfonate] | > 100 | 53.9 | > 100 | > 100 | > 100 | > 100 | > 100 | > 100 | > 100 | > 100 | > 100 | > 100 | > 100 | > 100 | > 100 | > 100 | > 100 | > 100 | 67.8 | 33.8
